From ChEMBL document CHEMBL1201862, “PubChem BioAssay data set” (2004)
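48-hour exposure; five concentrations; linearly interpolated endpoints. The concentration for 50% growth inhibition is given as GI50.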 Calls of active or inactive are those of the source. Cut-off read from the data, not from the text of the source: active = GI50 up to about 1.1 µM and inactive = higher. Peptide text beside a SMILES is read from it.

Assays:
Test in all cases: DTP human tumour cell line panel, 48 h
[1] = test system: UO-31
[2] = test system: HCC 2998
[3] = test system: RXF 393
[4] = test system: NCI-H522
[5] = test system: COLO 205
[6] = test system: U-251
[7] = test system: Malme-3M
[8] = test system: RPMI-8226
[9] = test system: ACHN
[10] = test system: M14
[11] = test system: LXFL 529
[12] = test system: MOLT-4
[13] = test system: NCI-H226
[14] = test system: EKVX
[15] = test system: SF-295
[16] = test system: SR
[17] = test system: OVCAR-5
[18] = test system: OVCAR-4
[19] = test system: SK-MEL-2
[20] = test system: HL-60

Measured: GI50

CCCCc1c2c(nc3c1CC/C(=C\c1ccc([N+](=O)[O-])cc1)C3=O)CCCC2
inactive: [1] 2.13 µM | [2] 1.78 µM | [3] 1.3 µM | [4] 1.51 µM | [5] 2.81 µM | [6] 1.59 µM | [7] 2 µM | [8] 1.7 µM | [9] 1.78 µM | [10] 1.85 µM | [11] 1.37 µM | [12] 1.77 µM | [13] 2.28 µM | [14] 11.4 µM | [15] 2.1 µM | [16] 2.86 µM

O=C(NC1CCCCC1)c1c(O)[nH]c(=S)[nH]c1=O
inactive: [1] 79.3 µM | [4] > 100 µM | [5] > 100 µM | [6] 88.5 µM | [7] > 100 µM | [17] > 100 µM | [8] > 100 µM | [9] 83 µM | [10] > 100 µM | [18] > 100 µM | [11] > 100 µM | [12] > 100 µM | [13] > 100 µM | [15] 99.3 µM | [16] > 100 µM | [19] > 100 µM

C/C(=C\CBr)CCC(Br)C(C)(C)Cl (configuration not stated)
inactive: [1] > 100 µM | [3] > 100 µM | [4] > 100 µM | [5] > 100 µM | [6] > 100 µM | [7] > 100 µM | [17] > 100 µM | [8] > 100 µM | [9] > 100 µM | [10] > 100 µM | [18] > 100 µM | [11] > 100 µM | [12] > 100 µM | [13] > 100 µM | [15] > 100 µM | [16] > 100 µM | [19] > 100 µM

O=C1NC2(CCCCC2)C2CCCCC=C12 (configuration not stated)
inactive: [1] > 100 µM | [3] > 100 µM | [4] > 100 µM | [5] > 100 µM | [6] > 100 µM | [7] > 100 µM | [17] > 100 µM | [20] > 100 µM | [8] > 100 µM | [9] > 100 µM | [10] > 100 µM | [18] > 100 µM | [11] > 100 µM | [12] > 100 µM | [14] > 100 µM | [15] > 100 µM | [16] > 100 µM | [19] > 100 µM

CCOC(=O)C(=O)Nc1c(C)cccc1C(C)(C)C
inactive: [1] > 100 µM | [2] > 100 µM | [3] > 100 µM | [4] > 100 µM | [5] > 100 µM | [6] > 100 µM | [7] > 100 µM | [17] > 100 µM | [8] > 100 µM | [9] > 100 µM | [10] > 100 µM | [18] 73.3 µM | [11] > 100 µM | [12] > 100 µM | [13] > 100 µM | [14] > 100 µM | [15] > 100 µM | [19] > 100 µM

Cc1ccc(NC(=O)C(=O)C(C(=O)c2ccc3ccccc3c2)C2OC(=O)c3ccccc32)c(C)c1 (configuration not stated)
inactive: [1] 13.1 µM | [2] 8.99 µM | [3] 3.24 µM | [4] 12.8 µM | [5] 11.1 µM | [6] 3.64 µM | [7] 8.99 µM | [17] 16.3 µM | [8] 5.87 µM | [9] 23.6 µM | [10] 14.7 µM | [18] 6.76 µM | [11] 8.09 µM | [12] 3.31 µM | [13] 2.63 µM | [14] 19.1 µM | [19] 13 µM

COc1cc(OC(C)=O)cc2c(OC(C)=O)ccc(OC(C)=O)c12
inactive: [1] > 100 µM | [3] > 100 µM | [4] > 100 µM | [6] > 100 µM | [17] > 100 µM | [20] 43.6 µM | [8] > 100 µM | [9] > 100 µM | [10] > 100 µM | [18] 73.6 µM | [11] > 100 µM | [12] > 100 µM | [14] > 100 µM | [15] > 100 µM | [16] > 100 µM | [19] > 100 µM

CC(C)(C)c1cc(C#N)c2c(c1)C(=O)OC2(c1ccccc1)c1ccccc1C#N (configuration not stated)
inactive: [1] 32.1 µM | [3] > 100 µM | [4] 12.3 µM | [5] > 100 µM | [6] > 100 µM | [7] > 100 µM | [17] > 100 µM | [20] 7.38 µM | [9] > 100 µM | [10] > 100 µM | [18] > 100 µM | [11] > 100 µM | [12] 23.8 µM | [13] > 100 µM | [14] > 100 µM | [15] 78.3 µM | [16] 20.8 µM | [19] > 100 µM

CC(C)CC(NC(=O)C(CC(C)C)NC(=O)C(Cc1c[nH]cn1)NC(=O)C(C)NC(=O)C(NC(=O)C(C)NC(=O)C(Cc1c[nH]c2ccccc12)NC(=O)C(CCC(=O)O)NC(=O)C(N)Cc1ccccc1)C(C)C)C(N)=O (configuration not stated) (H-FEWAVAHLL-NH2; configuration not given here)
inactive: [1] > 12.5 µM | [2] > 12.5 µM | [3] > 12.5 µM | [4] > 12.5 µM | [5] > 12.5 µM | [6] > 12.5 µM | [7] > 12.5 µM | [17] > 12.5 µM | [20] > 12.5 µM | [8] > 12.5 µM | [9] > 100 µM | [10] > 12.5 µM | [18] > 12.5 µM | [11] > 100 µM | [12] > 12.5 µM | [13] > 12.5 µM | [14] > 12.5 µM | [15] > 12.5 µM | [19] > 12.5 µM

O=C(CSC(=S)N1CCCCC1)Nc1nc2c(s1)CCCC2
inactive: [1] 33.7 µM | [2] 48.3 µM | [4] 29.5 µM | [5] 33.3 µM | [6] 29.2 µM | [7] > 100 µM | [17] > 100 µM | [20] 12.1 µM | [8] 33.5 µM | [9] 50 µM | [10] 66.5 µM | [18] 91.8 µM | [11] 32.1 µM | [12] 11 µM | [13] 43.4 µM | [15] 16.4 µM | [16] 6.4 µM | [19] > 100 µM

O=Cc1c(O)c(C(=O)Nc2ccc3[nH]c(=O)[nH]c3c2)cc2ccccc12
inactive: [1] > 100 µM | [2] > 100 µM | [3] > 100 µM | [4] > 100 µM | [5] > 100 µM | [6] > 100 µM | [7] > 100 µM | [17] > 100 µM | [20] > 100 µM | [8] > 100 µM | [9] > 100 µM | [10] > 100 µM | [18] > 100 µM | [11] > 100 µM | [12] > 100 µM | [13] > 100 µM | [14] > 100 µM | [15] > 100 µM | [19] > 100 µM
